Assay results: ChEMBL document CHEMBL4602645, “Design, synthesis and evaluation of diosgenin carbamate derivatives as multitarget anti-Alzheimer's disease agents” (2020)
The source made the active and inactive calls. No cut-off for these calls is given here.

Key:
SH-SY5Y [1] = assay: Neuroprotective activity against H2O2-induced cytotoxicity in human SH-SY5Y cells assessed as cell viability at 1 mM pretreated for 2 hrs followed by H2O2 challenge and measured after MTT assay relative to control; format: functional; conditions: read-out: Activity
SH-SY5Y [2] = assay: Neuroprotective activity in human SH-SY5Y cells assessed as inhibition of H2O2-induced decreased nerve filaments at 1 to 50 uM pretreated for 2 hrs followed by H2O2 challenge and measured after 12 hrs by fluorescence microscopy analysis; format: functional, cell-based
Astrocyte = assay: Neuroprotective activity against amyloid-beta42-induced cell death in astrocytes isolated from cortex of Sprague-Dawley rat assessed as decrease in cell viability at 5 to 100 uM pretreated for 2 hrs followed by amyloid-beta42 stimulation measured after 24 hrs by MTT assay; format: functional, cell-based
Mus musculus [3] = assay: Neuroprotective activity in ICR mouse model of D-galactose-induced aging assessed as increase in number of […] cells at 6 to 30 mg/kg, ig QD measured after 8 weeks by hematoxylin-eosin staining based assay; format: functional, organism-based
RAW264.7 [4] = assay: Antiinflammatory activity in mouse RAW264.7 cells assessed as inhibition of LPS-induced nitric oxide production at 10 uM preincubated for 2 hrs followed by LPS stimulation and measured after 24 hrs by Griess assay relative to control; format: functional
SH-SY5Y [5] = assay: Neuroprotective activity against H2O2-induced cytotoxicity in human SH-SY5Y cells assessed as cell viability at 10 uM pretreated for 2 hrs followed by H2O2 challenge and measured after 24 hrs by MTT assay relative to control; format: functional; conditions: read-out: Activity
RAW264.7 [6] = assay: Antiinflammatory activity in mouse RAW264.7 cells assessed as decrease in LPS-induced IL-6 expression by Western blot analysis; format: functional, cell-based
SH-SY5Y [7] = assay: Neuroprotective activity against H2O2-induced toxicity in human SH-SY5Y cells assessed as decrease in cell viability at 0.1 to 100 uM pretreated for 2 hrs followed by H2O2 challenge and measured after 12 hrs by MTT assay; format: functional, cell-based
SH-SY5Y [8] = assay: Effect on mitochondrial ROS generation in human SH-SY5Y cells assessed as decrease in H2O2-induced mitochondrial ROS level by measuring fluorescence intensity at 5 to 50 uM incubated for 2 hrs by DCFDA probe based fluorescence microscopy analysis; format: functional, cell-based
Mus musculus [9] = assay: Neuroprotective activity in ICR mouse model of D-galactose-induced aging assessed as reduction in degeneration of neuron in hippocampal region at 6 to 30 mg/kg, ig QD measured after 8 weeks by hematoxylin-eosin staining based assay; format: functional, organism-based
Mus musculus [10] = assay: Improvement in learning and spatial memory in ICR mouse model of D-galactose-induced aging assessed as effect on time spent on quadrant at 6 to 30 mg/kg, ig QD measured after 8 weeks by Morris water maze test; format: functional, organism-based
Mus musculus [11] = assay: Antioxidant activity in ICR mouse model of D-galactose-induced aging assessed as increase in superoxide dismutase level in serum at 6 to 30 mg/kg, ig QD measured after 8 weeks; format: functional, organism-based
RAW264.7 [12] = assay: Antiinflammatory activity in mouse RAW264.7 cells assessed as decrease in LPS-induced TNFalpha expression by Western blot analysis; format: functional, cell-based
RAW264.7 [13] = assay: Antiinflammatory activity in mouse RAW264.7 cells assessed as decrease in LPS-induced IL-1beta expression by Western blot analysis; format: functional, cell-based
SH-SY5Y [14] = assay: Neuroprotective activity in human SH-SY5Y cells assessed as inhibition of H2O2-induced shortened nerve filaments at 1 to 50 uM pretreated for 2 hrs followed by H2O2 challenge and measured after 12 hrs by fluorescence microscopy analysis; format: functional, cell-based
SH-SY5Y [15] = assay: Effect on mitochondrial membrane potential in human SH-SY5Y cells assessed as […] in H2O2-incuded mitochondrial membrane potential loss by measuring fluorescence shift at 5 to 50 uM pretreated for 2 hrs followed by H2O2 challenge measured after 12 hrs by fluorescence microscopy analysis; format: functional, cell-based

SMILES: CC(=O)N[C@@H](CS)C(=O)O [ACETYLCYSTEINE]
- viability at 1000 µM (SH-SY5Y [1]): 37.1%

SMILES: C[C@@H]1CC[C@@]2(OC1)O[C@H]1C[C@H]3[C@@H]4CC=C5C[C@@H](OC(=O)NCc6ccccc6)CC[C@]5(C)[C@H]4CC[C@]3(C)[C@H]1[C@@H]2C
- Activity (SH-SY5Y [2]): Active
- Activity (Astrocyte): Active
- Activity (Mus musculus [3]): Active
- inhibition at 10 µM (RAW264.7 [4]): 22.7%
- viability at 10 µM (SH-SY5Y [5]): 75.3%
- Activity (RAW264.7 [6]): Dose-dependent effect
- Activity (SH-SY5Y [7]): Active
- Activity (SH-SY5Y [8]): Active
- Activity (Mus musculus [9]): Active
- Activity (Mus musculus [10]): Active
- Activity (Mus musculus [11]): Active
- Activity (RAW264.7 [12]): Dose-dependent effect
- Activity (RAW264.7 [13]): Dose-dependent effect
- Activity (SH-SY5Y [14]): Active
- Activity (SH-SY5Y [15]): Active
